Data set [1] concerns seed geranium. The conditions noted are these: in combination with nitrogen, phosphorus, and potassium; Lee and others (1996); cited from earlier work.
Data set [2] has as its system French marigold. As to conditions: Jong et al. (1996); cited from earlier work.
The conditions of data set [3]: 2005 carcinogen assessment guidelines; cited from earlier work.
Data set [4] concerns chlorophyllitic plants. The conditions noted are these: as little as; cited from earlier work.
Data set [5] deals with perennial grasses. Briefly: Turfgrass test plots, Bozeman, MT: healthy perennial grass cover and turf stress. It counts as in vivo. As to conditions: healthy perennial grass cover averaged over each treatment category, 21 months (Table 3). The text has this:
(§1) Initially, a series of small turfgrass test plots was studied to gather preliminary information that helped guide the establishment of this larger, long-term study involving multiple rates and formulations. The test plots of this experiment were established in a weedy turfgrass location within the Bridger Creek Subdivision Community Association, Phase 1, Section 31, Township 1 South, Range 6 East, P.M.M., City of Bozeman, Gallatin County, Montana. The experimental site was established in a location with approximately 20 inches of annual precipitation, with annual maximum precipitation amounts observed in May and June. Winter conditions with frozen ground prevail during approximately 5 months of the year (November-March). Soils have high organic matter content in the upper six inches and are underlain by floodplain gravels and a water table 3-15 feet below ground surface. […]
(§2) The plots were typically 50 square feet (FIG. 1). Vegetation cover measurements were made using a frame placed on the turf and an estimate was calculated for the proportion of perennial grasses and weeds in each frame (FIG. 2). […] Since installation of the first plots, they have been monitored 5 times over a period of 21 months for vegetation cover. […]
The boron-only plots caused turf stress and yellowing. Immediately following application in monitoring, healthy and unhealthy/stressed turf was measured based on tissue color. […]

For data set [6], the system named is turf weeds. Briefly: Turfgrass test plots, Bozeman, MT: weed cover. It counts as in vivo.
Description: as §1, with “surface. The primary turf weeds at this location in their order of relative prevalence are clover, dandelion, creeping Charlie, oxeye daisy, black medic and Canadian thistle.” for “surface.”
as §2

On to `[B]` [boron], for which the “concentration of nutrient solution inducing micronutrient toxicity symptoms” value in data set [1] was 500 ng/mL. In addition, the “concentration inducing micro-nutrient toxicity” value in data set [2] is 500 ng/mL.

For the compound borate salts, the “U.S. EPA carcinogenicity classification” value in data set [3] was “not likely to be carcinogenic to humans”.

Regarding `[Cu]` [Cu, copper], the “concentration of nutrient solution inducing micronutrient toxicity symptoms” value in data set [1] was 500 ng/mL.

As for `OB(O)O` [boric acid], the “U.S. EPA carcinogenicity classification” value in data set [3] is listed as “not likely to be carcinogenic to humans”.

For `O=C(O)CNCP(=O)(O)O` [glyphosate], the “application rate effective at causing photosynthetic disruption” value in data set [4] is on record as 0.75 pounds active ingredient per acre.

As for `[Mo]` [Mo, molybdenum], in data set [1], the “concentration of nutrient solution inducing micronutrient toxicity symptoms” value is 250 ng/mL.

Turning to `O=C(O)COc1ccc(Cl)cc1Cl` [2-4 D, 2,4-Dichlorophenoxyacetic acid], the “Average Percent Ground Cover For 21-Month Monitoring Period, Turf Grass” value in data set [5] stood at 80%. In data set [6] (typical value over the first 2 years of monitoring (FIG. 3), control about 50%), the “weed cover, typical” value is approximately 20%. In addition, the “Average Percent Ground Cover For 21-Month Monitoring Period, Weeds” value in data set [6] (weed cover averaged over each treatment category, 21 months (Table 3)) stood at 13%.

As for `[Zn]` [Zn, zinc], the “concentration of nutrient solution inducing micronutrient toxicity symptoms” value in data set [1] was 500 ng/mL.
